Data set [1] is described as follows: Critical aggregation concentration by ANS fluorescence probe assay. It counts as physicochemical. The note with it: emission 486 nm, breakpoint of I/I0 vs log(c/wt %), aqueous solution in ultrapure water, pH 6.5. How it is done: Fluorescence experiments were carried out as described previously.[35]
To determine the CAC value of individual peptides, the results were plotted as I/I0 versus log(c/wt %), where I indicates the maximum fluorescence intensity of ANS at a given sample concentration and I0 denotes the peak intensity for the ANS solution without peptide.
Critical aggregation concentration (CAC) values of the tripodal peptides were obtained from fluorescence probe assays using 8-anilo-1-naphthalenesulfonic acid (ANS).

Data set [2] is described as follows: Cryo-TEM imaging of self-assembled nanostructure. It counts as physicochemical. The note with it: 1 wt % aqueous solutions, above CAC. How it is done: Imaging was carried out as described previously.[35],[75]
To examine the morphology of the self-assembled nanostructure of these three arm trifunctional peptides, cryo-TEM imaging was performed for 1 wt % solutions, above the measured CAC values. […] In many cases, these structures are deposited on the lacey carbon grid in preference to, or in addition to, the vitrified grid holes.

Data set [3] relates to L929 murine fibroblast cells. As to the kind of experiment: MTT cell viability (cytocompatibility) assay. It counts as cell-based. The note with it: L929 murine fibroblasts, after 48 h, n = 3. Here is the method: L929 murine fibroblast cells (ECACC General Cell Collection) were grown in Dulbecco’s modified Eagle’s medium (DMEM) supplemented with 10% fetal bovine serum (FBS), 20 mM HEPES, and 1% GlutaMAX. The cells were maintained at pH 7.4, 37 °C, and 5% CO2 in 25 cm^2 cell culture flasks.
Assays were conducted as described previously.[23]
To be of utility as practical antimicrobials, bioactive molecules must show selective activity compared to their toxicity toward mammalian cells. The cytocompatibility of our peptides was investigated by a cell metabolic activity assay using MTT [3-(4,5-dimethylthiazol-2-yl)-2,5-diphenyltetrazolium bromide] assays using L929 murine fibroblast cell lines.
Figure 6 Cell viability data (with L929 murine fibroblasts) of tripodal peptides: (a) TP, (b) DTP, (c) FTP, and (d) FDTP. The error bar corresponds to the standard deviation of the value from the mean (n = 3, *p < 0.05, **p < 0.01 by performing the Anova statistical test).

Data set [4] deals with E. coli O157:H7 strain EDL933.
Data set [5] relates to Pseudomonas aeruginosa (NCTC 13437), clinical multidrug-resistant isolate.
In data set [6] the test system is Salmonella enterica serovar Typhimurium. The note with it: 24 h.
The next data set relates to S. aureus (ATCC 12600). The note with it: ATCC 12600, 24 h.
Data set [7] has as its system human red blood cells (hRBCs). The note with it: 0.5% (v/v) hRBCs in PBS, peptide 0–0.1 wt %, 1 h, hemoglobin at 414 nm, normalised to 0.1% Triton X-100; mean of three independent experiments.
The subject of data set [8] is E. coli EDL933 bacterial membrane. As to the kind of experiment: Bacteria live/dead (DMAO/EthD-III) staining, fluorescence microscopy. The note with it: E. coli EDL933 treated at MBC for 1 h at 37 °C; DMAO green / EthD-III red. It counts as cell-based, Escherichia coli. How it is done: Dual staining of peptide-treated bacteria, to detect potential membrane disruption,[80] was performed using a bacteria live/dead staining kit (PromoKine). This process involves incubating samples with fluorescent, nucleic acid dyes (DMAO, green, and EthD-III, red) that, respectively, are either able or unable to cross the bacterial membrane. […] Next, they were incubated with set volumes of both dyes for 15 min at room temperature. Slides were mounted using 5 μL of the stained solution onto glass coverslips and observed under a Nikon Eclipse Ti inverted microscope using a 10× objective. Images of different treatments, including controls were captured and compared.
Figure 8 DMAO/EtD-III stained images showing the peptide effects on the integrity of the bacterial membrane. Fluorescence microscopy was used to visualize DMAO and EtD-III dyes binding to the bacterial DNA. In this experiment, E. coli EDL933 was incubated with peptides at their minimum bactericidal concentration (MBC) for 1 h at 37 °C, followed by staining with a bacteria live/dead staining kit (PromoKine). Cells with disrupted membranes are stained red (EtD-III), while cells with intact membranes are stained green (DMAO).

Another data set concerns E. coli EDL933. The data set can be described thus: SEM imaging of peptide-treated bacteria. It counts as cell-based, Escherichia coli. The note with it: E. coli EDL933, peptide at MBC (31.25 μg/mL), 1 h at 37 °C.
The test system of the next data set is Klebsiella aerogenes. The note with it: 24 h.
Where [9] appears, read: E. coli O157:H7 EDL933, 24 h incubation, 5 × 10^6 CFU/mL, absorbance 600 nm, mean of three independent experiments.
Where [10] appears, read: E. coli O157:H7 EDL933, 24 h incubation, aliquots plated on MHA, no viable colonies.
Where [11] appears, read: P. aeruginosa NCTC13437, 24 h incubation, 5 × 10^6 CFU/mL, absorbance 600 nm, mean of three independent experiments.
[12] abbreviates: P. aeruginosa NCTC13437, 24 h incubation, aliquots plated on MHA, no viable colonies.

Converted amounts (≈) assume the structure as drawn. “Also recorded” adds a separate entry of the source. Like-named read-outs stand apart in the source and are kept apart here. Numbered stars: 1 amine (or outer) side, 2 acyl side, 3 side chain; on linkers, the order of the positions; unused ones are H or OH. Bridge positions count the residues as written; N and C are the ends. Square brackets hold non-standard residues; d marks the D form. Side chains are listed from the residue outwards. Peptide text beside a SMILES is read from it. * marks the point of attachment. d(εLys) = N[C@H](CCCCN[*:1])C(=O)[*:2]; εLys = N[C@@H](CCCCN[*:1])C(=O)[*:2]; Fmoc = O=C(OCC1c2ccccc2-c2ccccc21)*; X1 = CC[C@H](C)CCCCC(=O)*; Dab = NCC[C@H](N)C(=O)O

For `NCCCC[C@@H](N)C(=O)N[C@H](CCCCN)C(=O)N[C@@H](Cc1ccc(O)cc1)C(=O)NCCCC[C@H](NC(=O)[C@H](Cc1ccc(O)cc1)NC(=O)[C@@H](CCCCN)NC(=O)[C@H](N)CCCCN)C(=O)N[C@@H](Cc1ccc(O)cc1)C(=O)N[C@H](CCCCN)C(=O)N[C@H](CCCCN)C(N)=O` [DTP, (kkY)3K] (H-[dK][dK]YK([Tyr-dK-dK])Y[dK][dK]-NH2), in [1], the “Critical aggregation concentration (CAC)” value came out at 0.0069 ± 0.002 wt %. Besides, the “Morphology of self-assembled nanostructure (cryo-TEM)” value (“Morphology … (cryo-TEM)” for short) in [2] is “irregular globular aggregates”. Moreover, the “Cell viability / cytotoxicity (MTT)” value in data set [3] is listed as “nor do they or reduce the viability of fibroblasts”. Also, the minimum inhibitory concentration (MIC) in data set [4] (setting [9]) was 500 µg/mL (≈ 356 µM); in data set [5] (setting [11]) it was more than 1000 µg/mL; in [6], more than 1000 µg/mL; against S. aureus (ATCC 12600), more than 1000 µg/mL. Besides, the MBC in data set [4] (setting [10]) was 1000 µg/mL (≈ 712 µM); in [5] (setting [12]), more than 1000 µg/mL; in [6], more than 1000 µg/mL; against S. aureus (ATCC 12600), more than 1000 µg/mL. In data set [7], the “Hemolysis of hRBCs” value is “did not lyse hRBCs”.
For the molecule `NCCCC[C@@H](NC(=O)[C@@H](CCCCN)NC(=O)[C@H](Cc1ccc(O)cc1)NC(=O)[C@H](CCCCNC(=O)[C@H](Cc1ccc(O)cc1)NC(=O)[C@@H](CCCCN)NC(=O)[C@H](N)CCCCNC(=O)OCC1c2ccccc2-c2ccccc21)NC(=O)[C@H](Cc1ccc(O)cc1)NC(=O)[C@@H](CCCCN)NC(=O)[C@H](N)CCCCNC(=O)OCC1c2ccccc2-c2ccccc21)C(N)=O` [FDTP, Fmoc-(kkY)3K] (H-[dK](Fmoc)[dK]YK([Tyr-dK-d(εLys)-Fmoc])Y[dK][dK]-NH2), the “Critical aggregation concentration (CAC)” value in data set [1] is listed as 0.0123 ± 0.003 wt %. In addition, the “Morphology … (cryo-TEM)” value in [2] was “irregular globular aggregates”. The “Cell viability / cytotoxicity (MTT)” value in data set [3] is recorded as “death of fibroblasts; also recorded: cytotoxicity at the two highest concentrations studied”. Further, in data set [8], the “Effect on integrity of the bacterial membrane (live/dead staining)” value is on record as “rapid, membrane-targeting effects”. The results for the “Bacterial surface morphology by SEM” value with E. coli EDL933 and in the data set with E. coli EDL933 (listed as FTDP) were “Significant disruption of the surface of the bacteria” and “collapsed shapes”, respectively. Besides, the MIC is 15.62 µg/mL (≈ 8.45 µM) in data set [4] (setting [9]); 125 µg/mL (≈ 67.6 µM) in [5] (setting [11]); 250 µg/mL (≈ 135 µM) in data set [6]; 62.5 µg/mL (≈ 33.8 µM) against Klebsiella aerogenes; 31.2 µg/mL (≈ 16.9 µM) in the data set with S. aureus (ATCC 12600). The MBC in data set [4] (setting [10]) was found to be 31.25 µg/mL (≈ 16.9 µM); in data set [5] (setting [12]), 250 µg/mL (≈ 135 µM); in [6] it was 500 µg/mL (≈ 271 µM); in the data set on Klebsiella aerogenes it was 62.5 µg/mL (≈ 33.8 µM); against S. aureus (ATCC 12600), 62.5 µg/mL (≈ 33.8 µM). For the same molecule, in data set [7], the “Hemolysis of hRBCs” value is “greater leakage of hRBCs”.
For `NCCCC[C@H](NC(=O)[C@H](CCCCN)NC(=O)[C@H](Cc1ccc(O)cc1)NC(=O)[C@H](CCCCNC(=O)[C@H](Cc1ccc(O)cc1)NC(=O)[C@H](CCCCN)NC(=O)[C@@H](N)CCCCNC(=O)OCC1c2ccccc2-c2ccccc21)NC(=O)[C@H](Cc1ccc(O)cc1)NC(=O)[C@H](CCCCN)NC(=O)[C@@H](N)CCCCNC(=O)OCC1c2ccccc2-c2ccccc21)C(N)=O` [FTP, Fmoc-(KKY)3K] (H-K(Fmoc)KYK([Tyr-Lys-εLys-Fmoc])YKK-NH2), the “Critical aggregation concentration (CAC)” value in data set [1] amounted to 0.0113 ± 0.005 wt %. Also, in data set [2], the “Morphology … (cryo-TEM)” value is listed as “sheet-like structures”. Besides, the “Effect on integrity of the bacterial membrane (live/dead staining)” value in data set [8] is on record as “rapid, membrane-targeting effects”. Also, the MIC in data set [4] (setting [9]) worked out at 62.5 µg/mL (≈ 33.8 µM); in [5] (setting [11]), 125 µg/mL (≈ 67.6 µM); in data set [6] it was 250 µg/mL (≈ 135 µM); against Klebsiella aerogenes it was 62.5 µg/mL (≈ 33.8 µM); with S. aureus (ATCC 12600), 125 µg/mL (≈ 67.6 µM). In addition, the MBC in [4] (setting [10]) is 125 µg/mL (≈ 67.6 µM); in data set [5] (setting [12]) it was 250 µg/mL (≈ 135 µM); in data set [6], 500 µg/mL (≈ 271 µM); with Klebsiella aerogenes it was 62.5 µg/mL (≈ 33.8 µM); in the data set with S. aureus (ATCC 12600), 250 µg/mL (≈ 135 µM).
Turning to `NCCCC[C@H](NC(=O)[C@H](CCCCN)NC(=O)[C@H](Cc1ccc(O)cc1)NC(=O)[C@H](CCCCNC(=O)[C@H](Cc1ccc(O)cc1)NC(=O)[C@H](CCCCN)NC(=O)[C@@H](N)CCCCN)NC(=O)[C@H](Cc1ccc(O)cc1)NC(=O)[C@H](CCCCN)NC(=O)[C@@H](N)CCCCN)C(N)=O` [TP, (KKY)3K] (H-KKYK([Tyr-Lys-Lys])YKK-NH2), the “Critical aggregation concentration (CAC)” value in [1] amounted to 0.0065 ± 0.004 wt %. Also, the “Morphology … (cryo-TEM)” value in [2] is “irregular globular aggregates”. Besides, in data set [3], the “Cell viability / cytotoxicity (MTT)” value was “nor do they or reduce the viability of fibroblasts”. The minimum inhibitory concentration (MIC) in data set [4] (setting [9]) is more than 1000 µg/mL. The MBC in data set [4] (setting [10]) is more than 1000 µg/mL. Moreover, the “Hemolysis of hRBCs” value in data set [7] is “did not lyse hRBCs”.
On to `CC[C@H](C)CCCCC(=O)N[C@@H](CCN)C(=O)N[C@H](C(=O)N[C@@H](CCN)C(=O)N[C@H]1CCNC(=O)[C@H]([C@@H](C)O)NC(=O)[C@H](CCN)NC(=O)[C@H](CCN)NC(=O)[C@H](CC(C)C)NC(=O)[C@@H](Cc2ccccc2)NC(=O)[C@H](CCN)NC1=O)[C@@H](C)O` [polymyxin B, reference compound] (X1-[Dab]T[Dab][Dab][Dab][dF]L[Dab][Dab]T; lactam 4-C (inferred); N-terminus assumed), for which the MBC in data set [4] (O157:H7, 24 h) was 6.25 µg/mL (≈ 5.19 µM); in data set [5] (NCTC 13437, 24 h) it was 25 µg/mL (≈ 20.8 µM); in data set [6] it was 12.5 µg/mL (≈ 10.4 µM); against Klebsiella aerogenes it was 6.25 µg/mL (≈ 5.19 µM); in the data set with S. aureus (ATCC 12600), more than 100 µg/mL. Also, the MIC is 3.12 µg/mL (≈ 2.59 µM) in data set [4] (O157:H7, 24 h); 6.25 µg/mL (≈ 5.19 µM) in data set [5] (NCTC 13437, 24 h); 6.25 µg/mL (≈ 5.19 µM) in [6]; 3.12 µg/mL (≈ 2.59 µM) in the data set on Klebsiella aerogenes; more than 100 µg/mL in the data set on S. aureus (ATCC 12600).

Values taken from publication PMC11752523, “Effect of Chirality and Amphiphilicity on the Antimicrobial Activity of Tripodal Lysine-Based Peptides” (ACS Applied Bio Materials, 2025).
